Reference: ChEMBL document CHEMBL2074262, “Molecular identification and characterization of novel members of the human organic anion transporter (OATP) family” (Biochem Biophys Res Commun, 2000)

Experiments:
Format in all cases: functional, cell-based
[1] = biological target: T1, Solute carrier organic anion transporter family member 1B1 (Homo sapiens, UniProt Q9Y6L6); assay: TP_TRANSPORTER: uptake in OATP-C-expressing HEK293 cells
T1 sequence (Q9Y6L6 whole entry): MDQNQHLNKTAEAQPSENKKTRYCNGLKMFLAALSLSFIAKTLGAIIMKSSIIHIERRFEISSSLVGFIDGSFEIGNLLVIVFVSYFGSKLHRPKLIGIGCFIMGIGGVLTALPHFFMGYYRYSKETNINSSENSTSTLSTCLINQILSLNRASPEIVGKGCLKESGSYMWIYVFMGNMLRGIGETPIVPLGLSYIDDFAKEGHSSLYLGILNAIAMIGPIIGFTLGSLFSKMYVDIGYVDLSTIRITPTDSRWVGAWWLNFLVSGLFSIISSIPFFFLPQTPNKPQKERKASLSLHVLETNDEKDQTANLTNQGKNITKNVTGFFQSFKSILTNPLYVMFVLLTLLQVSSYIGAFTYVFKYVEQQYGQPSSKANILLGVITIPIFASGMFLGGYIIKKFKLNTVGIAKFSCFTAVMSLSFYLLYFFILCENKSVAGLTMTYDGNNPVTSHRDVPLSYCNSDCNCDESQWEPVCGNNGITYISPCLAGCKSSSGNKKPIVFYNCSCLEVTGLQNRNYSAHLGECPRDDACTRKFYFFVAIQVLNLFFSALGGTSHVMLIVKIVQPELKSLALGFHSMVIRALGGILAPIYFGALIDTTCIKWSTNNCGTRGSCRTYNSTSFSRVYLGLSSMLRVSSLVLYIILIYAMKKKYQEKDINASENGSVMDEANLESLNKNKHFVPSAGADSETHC

[2] = biological target: T2, Solute carrier organic anion transporter family member 3A1 (Homo sapiens, UniProt Q9UIG8); assay: TP_TRANSPORTER: uptake in OATP-D-expressing HEK293 cells
T2 sequence (Q9UIG8 whole entry): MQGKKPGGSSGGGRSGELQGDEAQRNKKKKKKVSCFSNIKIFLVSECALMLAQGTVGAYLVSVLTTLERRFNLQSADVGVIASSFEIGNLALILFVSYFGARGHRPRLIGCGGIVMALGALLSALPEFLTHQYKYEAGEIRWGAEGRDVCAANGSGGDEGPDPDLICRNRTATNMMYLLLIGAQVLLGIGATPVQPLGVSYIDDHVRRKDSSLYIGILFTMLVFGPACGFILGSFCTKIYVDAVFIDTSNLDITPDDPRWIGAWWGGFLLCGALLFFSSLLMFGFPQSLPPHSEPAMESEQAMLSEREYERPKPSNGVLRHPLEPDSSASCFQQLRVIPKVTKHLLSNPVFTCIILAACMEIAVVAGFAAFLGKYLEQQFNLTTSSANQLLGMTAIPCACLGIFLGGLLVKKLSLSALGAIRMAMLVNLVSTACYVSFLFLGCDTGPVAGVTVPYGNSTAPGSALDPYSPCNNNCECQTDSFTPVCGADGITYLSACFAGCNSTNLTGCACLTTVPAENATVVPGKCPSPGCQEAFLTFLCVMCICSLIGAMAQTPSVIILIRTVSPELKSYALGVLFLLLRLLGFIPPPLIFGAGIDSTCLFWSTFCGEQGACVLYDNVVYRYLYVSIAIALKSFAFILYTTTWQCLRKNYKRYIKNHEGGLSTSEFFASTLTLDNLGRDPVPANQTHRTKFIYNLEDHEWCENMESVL

[3] = biological target: T3, Solute carrier organic anion transporter family member 2B1 (Homo sapiens, UniProt O94956); assay: TP_TRANSPORTER: uptake in OATP-B-expressing HEK293 cells
T3 sequence (O94956 whole entry): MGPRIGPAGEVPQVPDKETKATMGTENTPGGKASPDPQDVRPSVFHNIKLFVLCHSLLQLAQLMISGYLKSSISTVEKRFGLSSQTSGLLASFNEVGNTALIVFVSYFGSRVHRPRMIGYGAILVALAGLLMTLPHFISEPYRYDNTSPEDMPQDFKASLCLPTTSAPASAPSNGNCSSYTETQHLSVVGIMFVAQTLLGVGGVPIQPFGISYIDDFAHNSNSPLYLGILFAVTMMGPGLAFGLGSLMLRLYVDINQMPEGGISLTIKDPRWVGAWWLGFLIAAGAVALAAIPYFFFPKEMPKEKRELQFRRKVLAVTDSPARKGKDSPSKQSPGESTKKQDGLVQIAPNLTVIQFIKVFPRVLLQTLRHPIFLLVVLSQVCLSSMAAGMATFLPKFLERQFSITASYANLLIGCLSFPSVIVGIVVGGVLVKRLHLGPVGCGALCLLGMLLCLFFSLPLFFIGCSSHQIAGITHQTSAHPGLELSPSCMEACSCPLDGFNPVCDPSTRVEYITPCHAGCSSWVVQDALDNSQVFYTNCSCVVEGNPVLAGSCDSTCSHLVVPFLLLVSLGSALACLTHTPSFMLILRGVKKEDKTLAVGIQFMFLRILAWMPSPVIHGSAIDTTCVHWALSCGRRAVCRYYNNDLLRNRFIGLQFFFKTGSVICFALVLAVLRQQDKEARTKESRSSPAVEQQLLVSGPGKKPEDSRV

[4] = biological target: T4, Solute carrier organic anion transporter family member 4A1 (Homo sapiens, UniProt Q96BD0); assay: TP_TRANSPORTER: uptake in OATP-E-expressing HEK293 cells
T4 sequence (Q96BD0 whole entry): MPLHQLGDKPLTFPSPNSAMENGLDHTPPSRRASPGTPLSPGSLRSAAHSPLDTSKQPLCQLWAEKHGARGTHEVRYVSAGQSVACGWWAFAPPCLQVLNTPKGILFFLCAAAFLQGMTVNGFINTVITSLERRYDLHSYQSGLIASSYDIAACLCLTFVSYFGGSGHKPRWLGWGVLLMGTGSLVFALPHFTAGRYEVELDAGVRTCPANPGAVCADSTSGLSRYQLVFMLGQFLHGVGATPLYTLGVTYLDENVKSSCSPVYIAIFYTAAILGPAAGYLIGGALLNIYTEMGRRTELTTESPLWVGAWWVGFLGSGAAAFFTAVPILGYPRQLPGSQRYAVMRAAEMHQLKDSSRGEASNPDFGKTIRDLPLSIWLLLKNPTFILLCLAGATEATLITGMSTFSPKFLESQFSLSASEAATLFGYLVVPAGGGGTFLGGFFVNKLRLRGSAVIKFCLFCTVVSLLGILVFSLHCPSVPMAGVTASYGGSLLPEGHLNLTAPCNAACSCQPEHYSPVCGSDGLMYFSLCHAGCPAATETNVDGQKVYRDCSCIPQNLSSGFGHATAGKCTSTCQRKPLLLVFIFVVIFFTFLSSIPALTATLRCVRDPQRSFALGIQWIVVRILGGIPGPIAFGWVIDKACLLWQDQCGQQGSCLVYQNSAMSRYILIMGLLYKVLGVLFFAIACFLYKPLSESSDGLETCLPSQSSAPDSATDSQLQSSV

Activity [1] | Activity [2] | Activity [3] | Activity [4] | SMILES
substrate [+] | substrate [+] | substrate [+] | substrate [+] | CC1(C)S[C@@H]2[C@H](NC(=O)Cc3ccccc3)C(=O)N2[C@H]1C(=O)O [PENICILLIN G]
substrate [+] | substrate [+] | substrate [+] | substrate [+] | CCCCC[C@H](O)/C=C/[C@H]1[C@H](O)CC(=O)[C@@H]1C/C=C\CCCC(=O)O [DINOPROSTONE]
– | substrate [+] | – | substrate [+] | C[C@]12CC[C@@H]3c4ccc(OS(=O)(=O)O)cc4CC[C@H]3[C@@H]1CCC2=O [ESTRONE SULFURIC ACID]

SMILES | Activity [1] | Activity [2] | Activity [3] | Activity [4]
C[C@]12CC[C@@H]3c4ccc(O)cc4CC[C@H]3[C@@H]1CC[C@@H]2O[C@@H]1O[C@H](C(=O)O)[C@@H](O)[C@H](O)[C@H]1O [ESTRADIOL 17B GLUCURONIDE] | – | – | – | substrate [+]
